Data from paper PMC9511483, “Refinement of Computational Access to Molecular Physicochemical Properties: From Ro5 to bRo5” (Journal of Medicinal Chemistry, 2022).
In brackets after ≈: the same amount, converted by molar mass.

Assays:
[1] = design: method as in Clark 1999; conditions: atom selection N, O, S, P, H; ref Clark 1999; cited from earlier work
Thermodynamic solubility = type: physicochemical; conditions: for solubility: 25 °C, thermodynamic from solid, thermodynamic solubility, read-out: Solubility 25ºC log S (converted)
Experimental: Table S1: Thermodynamic solubility and permeability data of the three selected compounds.
Solubility 25 °C Permeability
Molecules log S (mol/l) (cm/s x 10 )

[2] = PLRP-S retention at 50-100% ACN (chameleonicity); type: physicochemical; conditions: mobile phases 50 to 100% ACN
Description: In a recent paper, we proposed to monitor the propensity of compounds to assume a chameleonic behavior through the analysis of the variation of the capacity factor in a nonpolar polymeric chromatographic system, named PLRP-S.[16] Here we applied the same approach and determined the retention of the three compounds in the PLRP-S system with various mobile phases (from 50 to 100% ACN). According to the reverse-phase (RP) nature of the system, the retention time (and thus log k′ PLRP-S) of lipophilic molecules is expected to decrease when increasing the amount of acetonitrile in the mobile phase. […] This experimental finding can be explained by a propensity of Saquinavir to change its conformation in a nonpolar environment, masking its polarity supporting the chameleonic properties of this compound.

[3] = log k′80 PLRP-S chromatographic lipophilicity; type: physicochemical; conditions: 80% ACN
Experimental: (§1) Mobile phases consisted of an isocratic solution of 20 mM ammonium acetate at pH 7.0 and acetonitrile at various percentages (see specific method). Samples were dissolved in buffer/acetonitrile at concentrations ranging from 50 to 100 μg/mL. Chromatographic measurements were analyzed in duplicate. Then 10 μL of each solution (volume of injection) were injected at an isocratic 1 mL/min flow rate, analyzed at 30 °C (oven temperature). Each chromatographic descriptor required a specific HPLC method (see below).
The retention times of the three samples were recorded at 80% ACN and capacity factors were calculated. Moreover, gold standards (acetone, caffeine, phenol, uracil–acetophenone--toluene mix and benzene) were daily checked.[15]

[4] = BRlogD chromatographic lipophilicity (XBridge Shield RP18); type: physicochemical
Experimental: as §1
The three compounds previously dissolved in ACN were injected into the X-Bridge column (mobile phase: 40% buffer, 60% ACN), and the retention times and dead time (t0, baseline disturbance) were recorded. Consequently, capacity factor log k′60 was calculated (log k′60 = [tR – t0]/t0). The corresponding BRlogD value was obtained using equation: BRlogD = 3.31 × log k′60 + 2.79.[12] The used standard is acetone, caffeine, ibuprophen, lidocaine, phenol and a mixture of uracile, acetophenone and toluene.

[5] = SI Table S1; cited from earlier work
[6] = Δlog Poct-tol IMHB propensity; type: physicochemical; conditions: difference between log Poct and log Ptol
Description: Δlog Poct-tol([24]) (the difference between log Poct and log Ptol) is an indicator of the capacity of a compound to expose HDon groups, and thus it quantifies the molecular capacity to form dynamic IMHBs. […] Our data support that Saquinavir is the compound with the highest capacity to form IMHB, its Δlog Poct-tol being 0.79. Pomalidomide and CMP 98 show poorer propensity to mask HDon groups, although not negligible.

[7] = EPSA supercritical fluid chromatography polarity; type: physicochemical; conditions: SFC, Chirex 3014
Experimental: EPSA was determined following the SFC protocol by Goetz and co-workers.[17] Briefly, a polar stationary phase (Chirex 3014) and a nonpolar mobile phase (supercritical CO2 with the addition of 20 mM ammonium formate in methanol as a modifier) were used to enable separation of compounds based on their polarity. The modifier was varied in 11 min from 5% to 60% at 5%/min in a linear gradient, holding at 60% for 4.9 min and reverting to the original 5% in 0.1 min. The flow rate was 5 mL/min, with the outlet back pressure set to 100 bar instead of 140 bar of the original method. Samples were dissolved in DMSO, the injection volume was 5 μL. The column temperature was set to 40 °C.

[8] = log kW^IAM chromatographic lipophilicity (IAM.PC.DD2 column); type: physicochemical; conditions: extrapolated to 100% buffer, pH 7.0
Experimental: as §1
Dissolved samples were injected into column IAM.PC.DD2, and retention times were recorded at different mobile phase percentages (from 10 to 50% ACN). Capacity factor was calculated for each mobile phase condition using equation: k′ = [tR – t0]/t0) t0 being the retention time of a nonretained molecule (citric acid). The log kW^IAM value for each molecule was calculated by extrapolating the 100% buffer value (0% ACN) from the equation obtained with the five mobile phase conditions, previously mentioned. In addition, five standards (caffeine, carbamazepine, ketoprofen, theobromine, and toluene) were examined on a daily basis.[33]

[9] = log Ptol, miniaturized shake-flask toluene/water; type: physicochemical
Experimental: log Ptol was determined with an automated, miniaturized shake flask method in a 96-well format according to the protocol described by Shalaeva and co-workers.[24]

[10] = Δlog kW^IAM polarity descriptor; type: physicochemical; conditions: experimental log kW^IAM minus clog kW^IAM from BRlogD
Description: Δlog kW^IAM was earlier defined by Grumetto et al.[48] as (Δlog kW^IAM = experimental log kW^IAM – clog kW^IAM (log kW^IAM for neutral and nonpolar compounds with PSA = 0). Moreover, clog kW^IAM was correlated to log P (octanol/water)[48] and more recently to BRlogD[12] with equation (clog kW^IAM = BRlogD* 0.92–1.03). Therefore, the measurement of BRlogD and log kW^IAM for the three samples allowed to calculate polarity descriptor Δlog kW^IAM.

Caco-2 = conditions: cited from earlier work
[11] = design: method as in PMID 29608068; conditions: cited from earlier work

Structure (SMILES): CC(=O)Nc1ccc(O)cc1 [Acetaminophen]
- 3D PSA PSA Clark 1999 [1]: 58.5 Å2

Structure (SMILES): O=C1CN=C(c2ccccn2)c2cc(Br)ccc2N1 [Bromazepam]
- 3D PSA PSA Clark 1999 [1]: 57.4 Å2

Structure (SMILES): Cc1ncsc1-c1ccc(CNC(=O)[C@@H]2C[C@H](O)CN2C(=O)[C@@H](NC(=O)COCCOCCOCCOCCOCCOCC(=O)N[C@H](C(=O)N2C[C@@H](O)C[C@H]2C(=O)NCc2ccc(-c3scnc3C)cc2)C(C)(C)C)C(C)(C)C)cc1 [CMP 98]
- solubility (Thermodynamic solubility): 331 µM (≈ 391 µg/mL)
- water solubility (Thermodynamic solubility; SI Table S1): water-soluble
- log k′ PLRP-S behaviour with increasing acetonitrile (chameleonicity index) [2]: some deviation from linearity
- log k´80 PLRP-S [3]: -0.84
- chromatographic logD ([4]; XBridge Shield RP18 HPLC column, 60% ACN, ammonium acetate pH 7.0): 1.38
- PAMPA permeability [5]: not PAMPA permeable
- Δlog P (Δlog Poct-tol) [6]: 1.62
- EPSA [7]: 104 A^2
- log kW^IAM [8]: 2.34
- log Ptol (SF) [9]: -0.24
- Δlog kW^IAM [10]: 2.1

Structure (SMILES): Cn1c(=O)c2c(ncn2C)n(C)c1=O [Caffeine]
- 3D PSA PSA Clark 1999 [1]: 59.2 Å2

Structure (SMILES): O=c1ccc2ccccc2o1 [Coumarin]
- 3D PSA PSA Clark 1999 [1]: 33.9 Å2

Structure (SMILES): Nc1nnc(-c2cccc(Cl)c2Cl)c(N)n1 [Lamotrigine]
- 3D PSA PSA Clark 1999 [1]: 96.4 Å2

Structure (SMILES): CN1C(=O)C(O)N=C(c2ccccc2Cl)c2cc(Cl)ccc21 (stereo not drawn) [Lormetazepam]
- 3D PSA PSA Clark 1999 [1]: 55.9 Å2

Structure (SMILES): Cc1cc(=O)n(-c2ccccc2)n1C [Phenazone]
- 3D PSA PSA Clark 1999 [1]: 28 Å2

Structure (SMILES): Nc1cccc2c1C(=O)N(C1CCC(=O)NC1=O)C2=O (stereo not drawn) [Pomalidomide]
- solubility (Thermodynamic solubility): 28.2 µM (≈ 7.7 µg/mL)
- log k′ PLRP-S behaviour with increasing acetonitrile (chameleonicity index) [2]: about in line with expectations
- log k´80 PLRP-S [3]: -0.65
- BRlogD ([4]; 60% ACN, ammonium acetate pH 7.0): 1.41
- Δlog P (Δlog Poct-tol) [6]: 1.63
- EPSA [7]: 82 A^2
- log kW^IAM [8]: 0.91
- log Ptol (SF) [9]: -0.22
- Δlog kW^IAM [10]: 0.64
- Permeability (Caco-2) (Caco-2; Caco-2, ref 13 (SI)): 24.9 cm/s x 10^-6

Structure (SMILES): CC(=O)[C@H]1CC[C@H]2[C@@H]3CCC4=CC(=O)CC[C@]4(C)[C@H]3CC[C@]12C [Progesterone]
- 3D PSA PSA Clark 1999 [1]: 41.2 Å2

Structure (SMILES): O=C(O)c1ccccc1O [Salicylic Acid]
- 3D PSA PSA Clark 1999 [1]: 62.5 Å2

Structure (SMILES): CC(C)(C)NC(=O)[C@@H]1C[C@@H]2CCCC[C@@H]2CN1C[C@@H](O)[C@H](Cc1ccccc1)NC(=O)[C@H](CC(N)=O)NC(=O)c1ccc2ccccc2n1 [Saquinavir]
- log k′ PLRP-S behaviour with increasing acetonitrile (chameleonicity index) [2]: significantly higher than expected
- log k´80 PLRP-S [3]: -0.1
- BRlogD ([4]; pH 7): 2.85
- Δlog P (Δlog Poct-tol) [6]: 0.79
- EPSA [7]: 94 A^2
- log kW^IAM [8]: 3.44
- log Ptol (SF) [9]: 2.06
- Δlog kW^IAM [10]: 1.85
- Permeability (Caco-2 with efflux inhibiton) (Caco-2; Caco-2 with efflux inhibition, ref 11 (SI)): 5.0 cm/s x 10^-6
- Permeability mechanism (Caco-2; ref 11 (SI)): Mainly active transport
- pKa [11]: 7.1

Structure (SMILES): Cn1c(=O)c2[nH]cnc2n(C)c1=O [Theophylline]
- 3D PSA PSA Clark 1999 [1]: 74.7 Å2
